Reference: paper PMC11079029, “Intramolecular autoinhibition regulates the selectivity of PRPF40A tandem WW domains for proline-rich motifs” (Nature Communications, 2024)
Where two headings read alike, the source gives them in different places. No end group written: not given here.

Biological target: T1, PRPF40A WW12 (tandem WW domains, residues 141–236) (Homo sapiens, UniProt O75400)
T1 construct: WW12 141–236, WW12long 141–248, and N-ext-WW12 56–236; 6xHis-TEV site (N, cleaved yes); made in house; host or cells: Escherichia coli BL21(DE3)
Experiment: ITC of PRPF40A WW12 with GB1-tagged proline-rich peptides and constructs
Type: binding
Conditions: for N (sites): ITC as E1, peptide in the cell, N >1 = more than one WW tandem per peptide; for DH: ITC binding enthalpy; for Kd: ITC
Description: PRPF40A isoform 1 sequences (N-ter 1–310, WW12short 141–223, WW12 141–236, WW12long 141–248, and N-ext-WW12 56–236) were amplified from a purchased DNA fragment (IDT) and cloned using NcoI and KpnI restriction sites into a pETM11 vector encoding 6xHis and TEV cleavage site as a N-terminal tag. SF1 (Pro A 410–468, Pro B 468–539, Pro C 539–594, Pro D 594–639, Pro BC 468–594, Pro CD 539–639, Pro BCD 468–639 and Pro ABCD 410–639) and SF3A1 (Middle Pro 364–413 and C-ter Pro 552–683) constructs were prepared in a similar manner using a pET24 vector with a 6xHis, GB1 and TEV cleavage site as N-terminal fusion cassette. 16-mer SF1 constructs (Table 1) and polyproline peptides (P6, P8, P10, P13, P16, P19, P22, P25, and P29) were cloned in the same pET24 vector with GB1 tag by direct ligation of purchased oligonucleotides (Eurofins). All peptide sequences contained N and C-terminal common residues to avoid boundary effects on binding: TEVsite-GAMSGS-peptide-SGSN. Mutants of PRPF40A WW12 and N-ext-WW12 constructs were prepared by site-directed mutagenesis. The truncated version of PRPF40A WW12 (141-217) was a gift from Dr. María Macías (IRB, Spain). All used oligonucleotides were purchased from Eurofins Genomics and are shown in Supplementary Table 6.
Resuspended cell pellets in 20 mM Tris pH 8.0, 500 mM NaCl, 10 mM imidazole, 0.5 mM TCEP, and protease inhibitors mix (SERVA) were lysed by cell disruption in a French press. Clear lysates, after centrifugation (at 18,000 g) and filtering, were loaded into Ni-NTA resin. The resin was then washed with 20 mM imidazole containing buffer, and the desired protein was eluted with 500 mM imidazole. PRPF40A constructs were then subjected to TEV protease treatment (homemade at a final concentration of ≈50 μg/ml), dialyzed overnight at 4 °C against an imidazole-free buffer, and then loaded again to Ni-NTA resin; desired digested proteins were obtained in the flow-through and wash fractions while uncleaved protein, TEV protease, and impurities remained bound to the resin. Cleaved PRPF40A proteins and GB1-tagged SF1, SF3A1, and polyproline constructs were further purified by size-exclusion chromatography on a HiLoad 16/60 Superdex 75 column (GE Healthcare) equilibrated with 20 mM sodium phosphate, pH 6.5, 100 mM NaCl and 1 mM DTT buffer. For the purification of PRPF40A WW12 in complex with SF1 peptide, cell pellets of recombinant expression for both proteins were mixed and processed together following the Ni-NTA—TEV digestion—reverse Ni-NTA—SEC-75 protocol; where the complex remained bound in a 1:1 stoichiometry throughout the whole purification (corroborated by NMR). Molecular weight of each sample was confirmed by mass spectrometry, purity was checked by PAGE-SDS, and protein concentrations were determined from the aromatic contribution to the UV absorbance spectra at 280 nm.
Experiments were conducted on a MicroCAl PEAQ-ITC (Malvern Instruments, UK) at 25 °C in 20 mM sodium phosphate pH 6.5 and 100 mM NaCl. PRPF40A was titrated into N-terminal GB1 tagged SF1 or polyproline constructs and vice versa with similar results. Protein concentrations in the cell were around 20–40 μM, while in the syringe ranged between 200 and 500 μM. Experiments were performed at least in duplicate with injections of 1.5 μL (0.4 μL for first point) separated by 150 s delays to recover thermal power baseline and continuous stirring in the cell (750 rpm) for correct mixing. The reference cell was filled with water in all experiments. Data were processed by removing the blank experiment (using digested GB1 fusion protein) and adjusted to one-site binding model with Malvern PEAQ-ITC Analysis software (Malvern Instruments, UK).

[1] = 25 °C, 20 mM sodium phosphate pH 6.5, 100 mM NaCl, GB1-tagged polyproline or SF1 16-mer peptide in the cell, WW tandem in the syringe, one-site model, apparent Kd, average of at least duplicates, read-out: Kd
[2] = SF1 peptides, individual value 1 (replicate 1), read-out: Kd Values with WW12, individual value
[3] = SF1 peptides, individual value 2 (replicate 2), read-out: Kd Values with WW12, individual value
[4] = SF1 peptides, individual value 3 (replicate 3), read-out: Kd Values with WW12, individual value

T1 sequence (O75400 141-236): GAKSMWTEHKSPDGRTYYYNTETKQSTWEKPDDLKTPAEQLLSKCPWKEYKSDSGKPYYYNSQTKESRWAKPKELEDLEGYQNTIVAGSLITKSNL

Row | Substance | N (sites) (WW tandem in the syringe) | DH (as E1) | other results
1 | MPPFGMPPAPPPPPPQ [SF1_623–638, GB1-tagged 16-mer from the SF1 C-terminal region] | 0.95 ± 0.10 sites | -10.7 ± 3.54 kcal/mol | Kd [1]: 23.3 ± 13.3 µM; Kd [2]: 21.8 µM; Kd [3]: 24.8 µM
2 | MPPPPPPPSGQPPPPP [SF1_478–493, GB1-tagged 16-mer from the SF1 C-terminal region] | 0.80 ± 0.11 sites | -14.3 ± 0.956 kcal/mol | Kd [1]: 9.59 ± 0.9 µM; Kd [2]: 8.26 µM; Kd [3]: 10.3 µM; Kd [4]: 10.2 µM
3 | MQPPPPPMNQGPHPPG [SF1_425–440, GB1-tagged 16-mer from the SF1 C-terminal region] | 0.87 ± 0.07 sites | -13.3 ± 1.41 kcal/mol | Kd [1]: 20.2 ± 3.1 µM; Kd [2]: 15.9 µM; Kd [3]: 21.8 µM; Kd [4]: 22.9 µM
4 | MYAPPPPPPPPMDPSN [SF1_596–611, GB1-tagged 16-mer from the SF1 C-terminal region] | 1.10 ± 0.30 sites | -10.9 ± 8.8 kcal/mol | Kd [1]: 65.9 ± 50.7 µM
5 | P10: recombinant GB1-tagged polyproline peptide, 10 prolines (GB1-GAMSGSPPPPPPPPPPSGSN; not fully specified) | 0.89 ± 0.11 sites | -9.63 ± 1.24 kcal/mol | –
6 | P13: recombinant GB1-tagged polyproline peptide, 13 prolines (GB1-GAMSGSPPPPPPPPPPPPPSGSN; not fully specified) | 0.78 ± 0.07 sites | -15.7 ± 1.54 kcal/mol | –
7 | P16: recombinant GB1-tagged polyproline peptide, 16 consecutive proline residues (GB1-GAMSGSPPPPPPPPPPPPPPPPSGSN; also: His6 tag state not given here) | 0.88 ± 0.08 sites | -15.2 ± 0.621 kcal/mol | –
8 | P19: recombinant GB1-tagged polyproline peptide, 19 prolines (GB1-GAMSGSPPPPPPPPPPPPPPPPPPPSGSN; also: His6 tag state not given here) | 1.10 ± 0.04 sites | -18.2 ± 0.837 kcal/mol | –
9 | P22: recombinant GB1-tagged polyproline peptide, 22 prolines (GB1-GAMSGSPPPPPPPPPPPPPPPPPPPPPPSGSN; also: His6 tag state not given here) | 1.39 ± 0.03 sites | -18.6 ± 0.574 kcal/mol | –
10 | P25: recombinant GB1-tagged polyproline peptide, 25 prolines (GB1-GAMSGSPPPPPPPPPPPPPPPPPPPPPPPPPSGSN; also: His6 tag state not given here) | 2.30 ± 0.09 sites | -16.6 ± 0.645 kcal/mol | –
11 | P29: recombinant GB1-tagged polyproline peptide, 29 prolines (GB1-GAMSGSPPPPPPPPPPPPPPPPPPPPPPPPPPPPPSGSN; also: His6 tag state not given here) | 2.47 ± 0.09 sites | -15.8 ± 0.502 kcal/mol | –
12 | SF1 Pro A: GB1-tagged SF1 construct, residues 410–468 (GB1-GHPMQHNPNGPPPPWMQPPPPPMNQGPHPPGHHGPPPMDQYLGSTPVGSGVYRLHQGKG; also: His6 tag state not given here) | – | – | DH (as E4): -15.1 ± 3.54 kcal/mol
13 | SF1 Pro C: GB1-tagged SF1 construct, residues 539–594, contains the WWbs 16-mer (GB1-GSIPPWQQQQAAAAASPGAPQMQGNPTMVPLPPGVQPPLPPGAPPPPPPPPPGSAG; also: His6 tag state not given here) | – | – | DH (as E4): -20.6 ± 0.22 kcal/mol
14 | SF1 Pro D: GB1-tagged SF1 construct, residues 594–639 (GB1-GMMYAPPPPPPPPMDPSNFVTMMGMGVAGMPPFGMPPAPPPPPPQN; also: His6 tag state not given here) | – | – | DH (as E4): -16 ± 4.52 kcal/mol
15 | SF3A1 Middle Pro: GB1-tagged SF3A1 construct, residues 364–413, contains a PPLP motif (GB1-EGQKVPPPPETPMPPPLPPTPDQVIVRKDYDPKASKPLPPAPAPDEYLVS; also: His6 tag state not given here) | – | – | DH (as E4): -27.25 ± 6.48 kcal/mol
16 | TMVPLPPGVQPPLPPG [SF1_565–580, GB1-tagged 16-mer from the SF1 C-terminal region] | 1.06 ± 0.11 sites | -13.5 ± 1.96 kcal/mol | Kd [2]: 24 µM; Kd [3]: 37.8 µM; Kd [4]: 23.4 µM; Kd (SF1 peptides, individual value 4 (replicate 4), read-out: Kd Values with WW12, individual value): 36.5 µM
